Read-outs that look alike come from different tables or passages of the source.
Target: T1, mouse GLP-1 receptor (Mus musculus, UniProt O35659)
T1 construct: βTC6 cells which express GLP-1R endogenously; host or cells: βTC6 cells
T1 sequence (O35659 22-463): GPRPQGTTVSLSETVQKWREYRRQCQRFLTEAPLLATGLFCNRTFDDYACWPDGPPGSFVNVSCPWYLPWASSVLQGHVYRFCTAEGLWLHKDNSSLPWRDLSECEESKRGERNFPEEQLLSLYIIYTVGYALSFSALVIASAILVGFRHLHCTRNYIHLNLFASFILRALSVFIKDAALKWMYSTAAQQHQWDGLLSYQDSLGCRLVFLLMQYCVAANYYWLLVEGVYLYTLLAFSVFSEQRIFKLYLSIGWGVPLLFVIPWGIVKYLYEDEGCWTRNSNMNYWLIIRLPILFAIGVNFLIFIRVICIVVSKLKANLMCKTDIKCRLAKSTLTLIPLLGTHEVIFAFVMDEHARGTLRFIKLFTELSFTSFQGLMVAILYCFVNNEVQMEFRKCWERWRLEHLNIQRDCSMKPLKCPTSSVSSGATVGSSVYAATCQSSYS
Assay: cAMP production in βTC6 cells expressing GLP-1R endogenously (Method C2)
Format: cell-based
Conditions: for Potency (%), Table S1: from EC50 in βTC6 cAMP assay, footnote: compare to GLP-1-NH2 (2)

[1] = read-out: EC50 (GLP-1R potency), Table S1

Description:  HEK-293T cells (Multispan inc., lot#.DC1267-062017) were suspended in cell culture media
(DMEM 1X + GlutaMAX (Gibco 31966-021)) complemented with FBS 10% (Sigma Aldrich
 βTC6 cells were suspended in HBSS buffer (Invitrogen) complemented with 20 mM HEPES (pH
In vitro pharmacology on HEK-293T cells (EC50: Method C1)
cells (Multispan inc., lot#.DC1267-062017) was determined by measuring their effects on cAMP
production using the HTRF detection method (performed by UREkA SARL). The cells were distributed
in 384-well microplates at a density of 1.0x10^4 cells/well. Stock solutions of the test compounds or the
reference agonist were prepared at a concentration of 1 mM in DMSO. Then, compounds to be tested
were diluted in cell culture media and transferred to the plate containing the cells to reach final assay

Row | SMILES | Potency (%), Table S1 | EC50 [1] | EC50
1 | CC[C@H](C)[C@H](NC(=O)[C@H](Cc1ccccc1)NC(=O)[C@H](CCC(=O)O)NC(=O)[C@H](CCCCN)NC(=O)[C@H](C)NC(=O)[C@H](C)NC(=O)[C@H](CCC(N)=O)NC(=O)CNC(=O)[C@H](CCC(=O)O)NC(=O)[C@H](CC(C)C)NC(=O)[C@H](Cc1ccc(O)cc1)NC(=O)[C@H](CO)NC(=O)[C@H](CO)NC(=O)[C@@H](NC(=O)[C@H](CC(=O)O)NC(=O)[C@H](CO)NC(=O)[C@@H](NC(=O)[C@H](Cc1ccccc1)NC(=O)[C@@H](NC(=O)CNC(=O)[C@H](CCC(=O)O)NC(=O)CNC(=O)[C@@H](N)Cc1c[nH]cn1)[C@@H](C)O)[C@@H](C)O)C(C)C)C(=O)N[C@@H](C)C(=O)N[C@@H](Cc1c[nH]c2ccccc12)C(=O)N[C@@H](CC(C)C)C(=O)N[C@H](C(=O)N[C@@H](CCCCN)C(=O)NCC(=O)N[C@@H](CCCNC(=N)N)C(=O)NCC(N)=O)C(C)C [S12, reference compound] | 42% | – | –
2 | CC[C@H](C)[C@H](NC(=O)[C@H](Cc1ccccc1)NC(=O)[C@H](CCC(=O)O)NC(=O)[C@H](CCCCN)NC(=O)[C@H](C)NC(=O)[C@H](C)NC(=O)[C@H](CCC(N)=O)NC(=O)CNC(=O)[C@H](CCC(=O)O)NC(=O)[C@H](CC(C)C)NC(=O)[C@H](Cc1ccc(O)cc1)NC(=O)[C@H](CO)NC(=O)[C@H](CO)NC(=O)[C@@H](NC(=O)[C@H](CC(=O)O)NC(=O)[C@H](CO)NC(=O)[C@@H](NC(=O)[C@H](Cc1ccccc1)NC(=O)[C@@H](NC(=O)CNC(=O)[C@H](CCC(=O)O)NC(=O)NC[C@H](CC(C)C)NC(=O)[C@@H](N)Cc1c[nH]cn1)[C@@H](C)O)[C@@H](C)O)C(C)C)C(=O)N[C@@H](C)C(=O)N[C@@H](Cc1c[nH]c2ccccc12)C(=O)N[C@@H](CC(C)C)C(=O)N[C@H](C(=O)N[C@@H](CCCCN)C(=O)NCC(=O)N[C@@H](CCCNC(=N)N)C(=O)NCC(N)=O)C(C)C [S7] | < 0.01% | > 10 µM | –
3 | CC[C@H](C)[C@H](NC(=O)[C@H](Cc1ccccc1)NC(=O)[C@H](CCC(=O)O)NC(=O)[C@H](CCCCN)NC(=O)[C@H](C)NC(=O)[C@H](C)NC(=O)[C@H](CCC(N)=O)NC(=O)CNC(=O)[C@H](CCC(=O)O)NC(=O)[C@H](CC(C)C)NC(=O)[C@H](Cc1ccc(O)cc1)NC(=O)[C@H](CO)NC(=O)[C@H](CO)NC(=O)[C@@H](NC(=O)[C@H](CC(=O)O)NC(=O)[C@H](CO)NC(=O)[C@@H](NC(=O)[C@H](Cc1ccccc1)NC(=O)[C@@H](NC(=O)CNC(=O)[C@H](CCC(=O)O)NC(=O)NC[C@H](CCCCN)NC(=O)[C@@H](N)Cc1c[nH]cn1)[C@@H](C)O)[C@@H](C)O)C(C)C)C(=O)N[C@@H](C)C(=O)N[C@@H](Cc1c[nH]c2ccccc12)C(=O)N[C@@H](CC(C)C)C(=O)N[C@H](C(=O)N[C@@H](CCCCN)C(=O)NCC(=O)N[C@@H](CCCNC(=N)N)C(=O)NCC(N)=O)C(C)C [S8] | < 0.01% | > 10 µM | –
4 | CC[C@H](C)[C@H](NC(=O)[C@H](Cc1ccccc1)NC(=O)[C@H](CCC(=O)O)NC(=O)[C@H](CCCCN)NC(=O)[C@H](C)NC(=O)[C@H](C)NC(=O)[C@H](CCC(N)=O)NC(=O)CNC(=O)[C@H](CCC(=O)O)NC(=O)[C@H](CC(C)C)NC(=O)[C@H](Cc1ccc(O)cc1)NC(=O)[C@H](CO)NC(=O)[C@H](CO)NC(=O)[C@@H](NC(=O)[C@H](CC(=O)O)NC(=O)[C@H](CO)NC(=O)[C@@H](NC(=O)[C@H](Cc1ccccc1)NC(=O)[C@@H](NC(=O)CNC(=O)[C@H](CCC(=O)O)NC(=O)NC[C@H](CCC(N)=O)NC(=O)[C@@H](N)Cc1c[nH]cn1)[C@@H](C)O)[C@@H](C)O)C(C)C)C(=O)N[C@@H](C)C(=O)N[C@@H](Cc1c[nH]c2ccccc12)C(=O)N[C@@H](CC(C)C)C(=O)N[C@H](C(=O)N[C@@H](CCCCN)C(=O)NCC(=O)N[C@@H](CCCNC(=N)N)C(=O)NCC(N)=O)C(C)C [S4] | < 0.01% | > 10 µM | –
5 | CC[C@H](C)[C@H](NC(=O)[C@H](Cc1ccccc1)NC(=O)[C@H](CCC(=O)O)NC(=O)[C@H](CCCCN)NC(=O)[C@H](C)NC(=O)[C@H](C)NC(=O)[C@H](CCC(N)=O)NC(=O)CNC(=O)[C@H](CCC(=O)O)NC(=O)[C@H](CC(C)C)NC(=O)[C@H](Cc1ccc(O)cc1)NC(=O)[C@H](CO)NC(=O)[C@H](CO)NC(=O)[C@@H](NC(=O)[C@H](CC(=O)O)NC(=O)[C@H](CO)NC(=O)[C@@H](NC(=O)[C@H](Cc1ccccc1)NC(=O)[C@@H](NC(=O)CNC(=O)[C@H](CCC(=O)O)NC(=O)NC[C@H](CCC(=O)O)NC(=O)[C@@H](N)Cc1c[nH]cn1)[C@@H](C)O)[C@@H](C)O)C(C)C)C(=O)N[C@@H](C)C(=O)N[C@@H](Cc1c[nH]c2ccccc12)C(=O)N[C@@H](CC(C)C)C(=O)N[C@H](C(=O)N[C@@H](CCCCN)C(=O)NCC(=O)N[C@@H](CCCNC(=N)N)C(=O)NCC(N)=O)C(C)C [S5] | < 0.01% | > 10 µM | –
6 | CC[C@H](C)[C@H](NC(=O)[C@H](Cc1ccccc1)NC(=O)[C@H](CCC(=O)O)NC(=O)[C@H](CCCCN)NC(=O)[C@H](C)NC(=O)[C@H](C)NC(=O)[C@H](CCC(N)=O)NC(=O)CNC(=O)[C@H](CCC(=O)O)NC(=O)[C@H](CC(C)C)NC(=O)[C@H](Cc1ccc(O)cc1)NC(=O)[C@H](CO)NC(=O)[C@H](CO)NC(=O)[C@@H](NC(=O)[C@H](CC(=O)O)NC(=O)[C@H](CO)NC(=O)[C@@H](NC(=O)[C@H](Cc1ccccc1)NC(=O)[C@@H](NC(=O)CNC(=O)[C@H](CCC(=O)O)NC(=O)NC[C@@H](NC(=O)[C@@H](N)Cc1c[nH]cn1)[C@@H](C)CC)[C@@H](C)O)[C@@H](C)O)C(C)C)C(=O)N[C@@H](C)C(=O)N[C@@H](Cc1c[nH]c2ccccc12)C(=O)N[C@@H](CC(C)C)C(=O)N[C@H](C(=O)N[C@@H](CCCCN)C(=O)NCC(=O)N[C@@H](CCCNC(=N)N)C(=O)NCC(N)=O)C(C)C [S6] | < 0.01% | > 10 µM | –
7 | CC[C@H](C)[C@H](NC(=O)[C@H](Cc1ccccc1)NC(=O)[C@H](CCC(=O)O)NC(=O)[C@H](CCCCN)NC(=O)[C@H](C)NC(=O)[C@H](C)NC(=O)[C@H](CCC(N)=O)NC(=O)CNC(=O)[C@H](CCC(=O)O)NC(=O)[C@H](CC(C)C)NC(=O)[C@H](Cc1ccc(O)cc1)NC(=O)[C@H](CO)NC(=O)[C@H](CO)NC(=O)[C@@H](NC(=O)[C@H](CC(=O)O)NC(=O)[C@H](CO)NC(=O)[C@@H](NC(=O)[C@H](Cc1ccccc1)NC(=O)[C@@H](NC(=O)CNC(=O)[C@H](CCC(=O)O)NC(=O)NC[C@H](Cc1c[nH]c2ccccc12)NC(=O)[C@@H](N)Cc1c[nH]cn1)[C@@H](C)O)[C@@H](C)O)C(C)C)C(=O)N[C@@H](C)C(=O)N[C@@H](Cc1c[nH]c2ccccc12)C(=O)N[C@@H](CC(C)C)C(=O)N[C@H](C(=O)N[C@@H](CCCCN)C(=O)NCC(=O)N[C@@H](CCCNC(=N)N)C(=O)NCC(N)=O)C(C)C [S11] | 5% | – | 0.0022 µM
8 | CC[C@H](C)[C@H](NC(=O)[C@H](Cc1ccccc1)NC(=O)[C@H](CCC(=O)O)NC(=O)[C@H](CCCCN)NC(=O)[C@H](C)NC(=O)[C@H](C)NC(=O)[C@H](CCC(N)=O)NC(=O)CNC(=O)[C@H](CCC(=O)O)NC(=O)[C@H](CC(C)C)NC(=O)[C@H](Cc1ccc(O)cc1)NC(=O)[C@H](CO)NC(=O)[C@H](CO)NC(=O)[C@@H](NC(=O)[C@H](CC(=O)O)NC(=O)[C@H](CO)NC(=O)[C@@H](NC(=O)[C@H](Cc1ccccc1)NC(=O)[C@@H](NC(=O)CNC(=O)[C@H](CCC(=O)O)NC(=O)NC[C@H](CO)NC(=O)[C@@H](N)Cc1c[nH]cn1)[C@@H](C)O)[C@@H](C)O)C(C)C)C(=O)N[C@@H](C)C(=O)N[C@@H](Cc1c[nH]c2ccccc12)C(=O)N[C@@H](CC(C)C)C(=O)N[C@H](C(=O)N[C@@H](CCCCN)C(=O)NCC(=O)N[C@@H](CCCNC(=N)N)C(=O)NCC(N)=O)C(C)C [S1] | 8% | – | –
9 | CC[C@H](C)[C@H](NC(=O)[C@H](Cc1ccccc1)NC(=O)[C@H](CCC(=O)O)NC(=O)[C@H](CCCCN)NC(=O)[C@H](C)NC(=O)[C@H](C)NC(=O)[C@H](CCC(N)=O)NC(=O)CNC(=O)[C@H](CCC(=O)O)NC(=O)[C@H](CC(C)C)NC(=O)[C@H](Cc1ccc(O)cc1)NC(=O)[C@H](CO)NC(=O)[C@H](CO)NC(=O)[C@@H](NC(=O)[C@H](CC(=O)O)NC(=O)[C@H](CO)NC(=O)[C@@H](NC(=O)[C@H](Cc1ccccc1)NC(=O)[C@@H](NC(=O)CNC(=O)[C@H](CCC(=O)O)NC(=O)NC[C@H](CCCNC(=N)N)NC(=O)[C@@H](N)Cc1c[nH]cn1)[C@@H](C)O)[C@@H](C)O)C(C)C)C(=O)N[C@@H](C)C(=O)N[C@@H](Cc1c[nH]c2ccccc12)C(=O)N[C@@H](CC(C)C)C(=O)N[C@H](C(=O)N[C@@H](CCCCN)C(=O)NCC(=O)N[C@@H](CCCNC(=N)N)C(=O)NCC(N)=O)C(C)C [S2] | < 0.01% | > 10 µM | –
